Some targets named below: KRas G12D (Homo sapiens, UniProt P01116, G12D); KRas G12V (Homo sapiens, UniProt P01116, G12V); KRas G12R (Homo sapiens, UniProt P01116, G12R); KRas G12A (Homo sapiens, UniProt P01116, G12A); KRas G12S (Homo sapiens, UniProt P01116, G12S); KRas G12C (Homo sapiens, UniProt P01116, G12C); KRas WT (Homo sapiens, UniProt P01116).
Holding throughout (test): biochemical

KRas G12R, sequence (P01116 1-169 isoform P01116-2 G12R): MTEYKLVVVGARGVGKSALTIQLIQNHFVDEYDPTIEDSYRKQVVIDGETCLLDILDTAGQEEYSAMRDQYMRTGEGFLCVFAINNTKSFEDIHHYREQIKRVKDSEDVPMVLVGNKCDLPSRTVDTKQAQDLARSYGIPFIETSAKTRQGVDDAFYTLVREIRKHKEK
KRas G12C, sequence (P01116 1-169 isoform P01116-2 G12C): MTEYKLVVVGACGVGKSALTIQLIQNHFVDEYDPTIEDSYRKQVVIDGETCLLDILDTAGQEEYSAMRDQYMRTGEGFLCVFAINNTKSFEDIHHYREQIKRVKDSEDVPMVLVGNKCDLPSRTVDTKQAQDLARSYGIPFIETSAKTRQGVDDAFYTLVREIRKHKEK
KRas WT, sequence (P01116 1-169 isoform P01116-2): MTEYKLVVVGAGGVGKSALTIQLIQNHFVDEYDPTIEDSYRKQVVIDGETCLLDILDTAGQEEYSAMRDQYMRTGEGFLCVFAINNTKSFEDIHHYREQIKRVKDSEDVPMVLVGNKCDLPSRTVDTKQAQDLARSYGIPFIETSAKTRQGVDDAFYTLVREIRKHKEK
KRas G12S, sequence (P01116 1-169 isoform P01116-2 G12S): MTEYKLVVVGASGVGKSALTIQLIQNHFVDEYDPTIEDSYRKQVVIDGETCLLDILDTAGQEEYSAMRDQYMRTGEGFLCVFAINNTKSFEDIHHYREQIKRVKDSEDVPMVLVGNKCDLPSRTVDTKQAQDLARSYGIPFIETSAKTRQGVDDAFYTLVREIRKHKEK
KRas G12V, sequence (P01116 1-169 isoform P01116-2 G12V): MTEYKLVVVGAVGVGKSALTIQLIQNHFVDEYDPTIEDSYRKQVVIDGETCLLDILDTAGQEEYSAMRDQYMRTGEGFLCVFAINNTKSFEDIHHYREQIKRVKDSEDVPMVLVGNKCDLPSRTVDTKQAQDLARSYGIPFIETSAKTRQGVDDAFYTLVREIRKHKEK
KRas G12D, sequence (P01116 1-169 isoform P01116-2 G12D): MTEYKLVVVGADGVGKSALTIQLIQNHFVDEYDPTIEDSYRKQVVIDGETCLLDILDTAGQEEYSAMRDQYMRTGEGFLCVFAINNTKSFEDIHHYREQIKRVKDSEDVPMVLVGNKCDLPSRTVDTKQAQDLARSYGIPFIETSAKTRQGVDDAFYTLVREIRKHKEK
KRas G12A, sequence (P01116 1-169 isoform P01116-2 G12A): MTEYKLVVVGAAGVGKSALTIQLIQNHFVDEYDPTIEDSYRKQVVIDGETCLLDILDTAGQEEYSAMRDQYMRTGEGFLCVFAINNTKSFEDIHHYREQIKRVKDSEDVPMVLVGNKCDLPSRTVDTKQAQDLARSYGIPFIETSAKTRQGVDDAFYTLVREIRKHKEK

Usually IC50 stands for the concentration at which inhibition is half-maximal. High values mean a need for much substance, low ones inhibition by little substance. On to `CCc1cccc2cccc(-c3ncc4c(N5CCCC(c6nc[nH]n6)C5)nc(OCC56CCCN5CCC6)nc4c3F)c12` (stereo not shown) [Example 295, 4-(3-(1H-1,2,4-triazol-3-yl)piperidin-1-yl)-7-(8-ethylnaphthalen-1-yl)-8-fluoro-2-((hexahydro-1H-pyrrolizin-7a-yl)methoxy)pyrido[4,3-d]pyrimidine], for which the concentration for half-maximal inhibition (IC50) was found to be 2450 nM on KRas G12D; 948 nM against KRas G12V; 593 nM against KRas G12R; 1800 nM on KRas G12A; 2380 nM against KRas G12S; 1900 nM at KRas G12C. Further, on KRas WT, half-maximal inhibition (IC50) was put at 2850 nM.
In the case of `CCc1c(F)ccc2cc(O)cc(-c3ncc4c(N5CCC[C@@](C)(O)C5)nc(C(=O)NC(C)CN(C)C)nc4c3F)c12` (stereo partly drawn) [Example 312, N-(1-(dimethylamino)propan-2-yl)-7-(8-ethyl-7-fluoro-3-hydroxynaphthalen-1-yl)-8-fluoro-4-((R)-3-hydroxy-3-methylpiperidin-1-yl)pyrido[4,3-d]pyrimidine-2-carboxamide], the IC50 at KRas G12D is 388 nM; on KRas G12V, 254 nM; against KRas G12R, 203 nM; at KRas G12A, 156 nM; at KRas G12S, 172 nM; on KRas G12C, 212 nM. Half-maximal inhibition on KRas WT (IC50) required 202 nM.
Take `C#Cc1c(F)ccc2cc(O)cc(-c3ncc4c(N5CCCC(O)C5)nc(OCCN(C)C)nc4c3F)c12` (stereo not shown) [Example 387, 1-(2-(2-(dimethylamino)ethoxy)-7-(8-ethynyl-7-fluoro-3-hydroxynaphthalen-1-yl)-8-fluoropyrido[4,3-d]pyrimidin-4-yl)piperidin-3-ol]: the half-inhibitory concentration (IC50) against KRas G12D was 124 nM; against KRas G12V, 130 nM; against KRas G12R, 125 nM; on KRas G12A it was 128 nM; against KRas G12S, 113 nM; at KRas G12C, 96 nM. The same compound yielded an IC50 at KRas WT of 106 nM.
In the case of `Cc1ccc2[nH]ncc2c1-c1ncc2c(N3CCCC(C)(O)C3)nc(OCC34CCCN3CCC4)nc2c1F` (stereo not shown) [Example 430, 1-(8-fluoro-2-((hexahydro-1H-pyrrolizin-7a-yl)methoxy)-7-(5-methyl-1H-indazol-4-yl)pyrido[4,3-d]pyrimidin-4-yl)-3-methylpiperidin-3-ol], the IC50 amounted to 6450 nM against KRas G12D; 4760 nM at KRas G12V; 8770 nM against KRas G12R; 6820 nM at KRas G12A; 7720 nM on KRas G12S; 7830 nM against KRas G12C. Also, at KRas WT, inhibition was half-maximal at 8050 nM (IC50).
As to `Cc1cc(-c2ncc3c(N4CCCC(C)(O)C4)nc(OCC45CCCN4CCC5)nc3c2F)c2cn[nH]c2c1` (stereo not shown) [Example 431, 1-(8-fluoro-7-(6-methyl-1H-indazol-4-yl)-2-((tetrahydro-1H-pyrrolizin-7a(5H)-yl)methoxy)pyrido[4,3-d]pyrimidin-4-yl)-3-methylpiperidin-3-ol], the IC50 at KRas G12D was determined as 9620 nM; against KRas G12V it was 15900 nM; against KRas G12R, 34400 nM; on KRas G12A it was 19600 nM; against KRas G12S, 19700 nM; against KRas G12C it was 17900 nM. The same compound returned an IC50 on KRas WT of 19700 nM.
Regarding `Cc1ccc(O)cc1-c1ncc2c(N3CCCC(C)(O)C3)nc(OCC34CCCN3CCC4)nc2c1F` (stereo not shown) [Example 432, 1-(8-fluoro-2-((hexahydro-1H-pyrrolizin-7a-yl)methoxy)-7-(5-hydroxy-2-methylphenyl)pyrido[4,3-d]pyrimidin-4-yl)-3-methylpiperidin-3-ol], the IC50 is 1140 nM at KRas G12D; 1930 nM against KRas G12V; 3040 nM at KRas G12R; 2270 nM against KRas G12A; 2410 nM on KRas G12S; 2410 nM against KRas G12C. The same compound came in with an IC50 against KRas WT of 2480 nM.
With `N#CCc1cccc2cccc(-c3ncc4c(N5CCCC6(CC(=O)N6)C5)nc(OCC56CCCN5CCC6)nc4c3F)c12` (stereo not shown) [Example 434, 2-(8-(8-fluoro-2-((hexahydro-1H-pyrrolizin-7a-yl)methoxy)-4-(2-oxo-1,6-diazaspiro[3.5]nonan-6-yl)pyrido[4,3-d]pyrimidin-7-yl)naphthalen-1-yl)acetonitrile], the IC50 against KRas G12D was 2200 nM; on KRas G12V, 3210 nM; on KRas G12R, 4510 nM; against KRas G12A, 5620 nM; at KRas G12S it was 3520 nM; on KRas G12C, 3480 nM. On KRas WT, this compound returned an IC50 of 5130 nM.
Take `Cc1cc(N)nc(-c2ncc3c(N4CCC[C@@](C)(O)C4)nc(OC[C@@H]4CCCN4C)nc3c2F)c1C(F)(F)F` [Example 435, (R)-1-(7-(6-amino-4-methyl-3-(trifluoromethyl)pyridin-2-yl)-8-fluoro-2-(((S)-1-methylpyrrolidin-2-yl)methoxy)pyrido[4,3-d]pyrimidin-4-yl)-3-methylpiperidin-3-ol]: the IC50 was 3890 nM on KRas G12D; 5440 nM against KRas G12V; 6860 nM at KRas G12R; 4910 nM at KRas G12A; 5640 nM against KRas G12S; 4840 nM against KRas G12C. Further, at KRas WT, the concentration for half-maximal inhibition (IC50) was 4450 nM.
With `NS(=O)(=O)CC1CCCN(c2nc(OCC34CCCN3CCC4)nc3c(F)c(-c4cccc5ccccc45)ncc23)C1` (stereo not shown) [Example 436], the IC50 is 798 nM against KRas G12D; 652 nM at KRas G12V; 331 nM on KRas G12R; 204 nM against KRas G12A; 217 nM on KRas G12S; 271 nM at KRas G12C. For the same compound, the IC50 at KRas WT was determined as 193 nM.
Take `C#Cc1cccc2cccc(-c3ncc4c(N5CCCC(CS(N)(=O)=O)C5)nc(OCC56CCCN5CCC6)nc4c3F)c12` (stereo not shown) [Example 437, 1-(1-(7-(8-ethynylnaphthalene-1-yl)-8-fluoro-2-((hexahydro-1H-pyrrolizin-7a-yl)methoxy)pyrido[4,3-d]pyrimidin-4-yl)piperidin-3-yl)methanesulfonamide]: the half-maximal inhibitory concentration (IC50) is 1430 nM against KRas G12D; 2680 nM against KRas G12V; 2760 nM against KRas G12R; 1360 nM at KRas G12A; 904 nM against KRas G12S; 1400 nM at KRas G12C. The IC50 against KRas WT is 715 nM.
For the compound `Cc1cccc2cccc(-c3ncc4c(N5CCCC(CS(N)(=O)=O)C5)nc(OCC56CCCN5CCC6)nc4c3F)c12` (stereo not shown) [Example 438, 1-(1-(8-fluoro-2-((hexahydro-1H-pyrrolizin-7a-yl)methoxy)-7-(8-methylnaphthalen-1-yl)pyrido[4,3-d]pyrimidin-4-yl)piperidin-3-yl)methanesulfonamide], the IC50 against KRas G12D came out at 238 nM; on KRas G12V it was 239 nM; against KRas G12R it was 99 nM; at KRas G12A, 109 nM; at KRas G12S, 106 nM; against KRas G12C it was 130 nM. At KRas WT, this compound came in with a half-maximal inhibitory concentration (IC50) of 95 nM.
Consider `NS(=O)(=O)CC1CCCN(c2nc(OCC34CCCN3CCC4)nc3c(F)c(-c4cccc5cccc(CO)c45)ncc23)C1` (stereo not shown) [Example 439, 1-(1-(8-fluoro-2-((hexahydro-1H-pyrrolizin-7a-yl)methoxy)-7-(8-(hydroxymethyl)naphthalen-1-yl)pyrido[4,3-d]pyrimidin-4-yl)piperidin-3-yl)methanesulfonamide], for which the IC50 worked out at 7970 nM against KRas G12D; 5790 nM at KRas G12V; 2830 nM on KRas G12R; 2150 nM at KRas G12A; 2260 nM against KRas G12S; 2530 nM against KRas G12C. Further, on KRas WT, the IC50 is 2030 nM.
For `CC1(O)CCCN(c2nc(OCC34CCCN3CCC4)nc3c(F)c(-c4cccc5cccc(C6CC6)c45)ncc23)C1` (stereo not shown) [Example 440, 1-(7-(8-cyclopropylnaphthalen-1-yl)-8-fluoro-2-((hexahydro-1H-pyrrolizin-7a-yl)methoxy)pyrido[4,3-d]pyrimidin-4yl)-3-methylpiperidin-3-ol], the IC50 against KRas G12D was found to be 510 nM; against KRas G12V, 844 nM; at KRas G12R, 1720 nM; at KRas G12A, 758 nM; on KRas G12S, 690 nM; against KRas G12C it was 550 nM. On KRas WT, this compound gave a concentration for half-maximal inhibition (IC50) of 714 nM.
With `O=S1(=O)CC(CNc2nc(OCC34CCCN3CCC4)nc3c(F)c(-c4cccc5cccc(CO)c45)ncc23)C1` [Example 443, 3-(((8-fluoro-2-((hexahydro-1H-pyrrolizin-7a-yl)methoxy)-7-(8-(hydroxymethyl)naphthalen-1-yl)pyrido[4,3-d]pyrimidin-4-yl)amino)methyl)thietane1,1-dioxide], the half-inhibitory concentration (IC50) against KRas G12D amounted to 53000 nM; on KRas G12V, 4210 nM; on KRas G12R, 6380 nM; on KRas G12A it was 8470 nM; on KRas G12S, 6310 nM; against KRas G12C it was 8200 nM. Further, the midpoint of inhibition against KRas WT, the IC50, lay at 18800 nM.
As to `O=C1NC(=O)C2(CCCN(c3nc(OCC45CCCN4CCC5)nc4c(F)c(-c5cccc6cccc(CO)c56)ncc34)C2)N1` (stereo not shown) [Example 447, 7-(8-fluoro-2-((hexahydro-1H-pyrrolizin-7a-yl)methoxy)-7-(8-(hydroxymethyl)naphthalen-1-yl)pyrido[4,3-d]pyrimidin-4-yl)-1,3,7-triazaspiro[4.5]decane-2,4-dione], the IC50 on KRas G12D was 1100 nM; on KRas G12V it was 744 nM; against KRas G12R, 964 nM; against KRas G12A, 665 nM; on KRas G12S it was 587 nM; against KRas G12C, 608 nM. Further, at KRas WT, inhibition was half-maximal at 557 nM (IC50).
As for `Cc1cccc2cccc(-c3ncc4c(N5CCCC6(C5)NC(=O)NC6=O)nc(OCC56CCCN5CCC6)nc4c3F)c12` (stereo not shown) [Example 448, 7-(8-fluoro-2-((hexahydro-1H-pyrrolizin-7a-yl)methoxy)-7-(8-methylnaphthalen-1-yl)pyrido[4,3-d]pyrimidin-4-yl)-1,3,7-triazaspiro[4.5]decane-2,4-dione], the IC50 at KRas G12D turned out to be 87 nM; against KRas G12V it was 54 nM; on KRas G12R, 61 nM; on KRas G12A it was 59 nM; on KRas G12S, 49 nM; against KRas G12C, 53 nM. At KRas WT, 53 nM corresponded to half-maximal inhibition (IC50).

For the origin of these results see patent US12398154B2, “Azaquinazoline pan-KRas inhibitors” (Mirati Therapeutics, Inc., priority 2020, dated 2025).
